Measurements as given in PMC12344758, “Qsarna: An Online Tool for Smart Chemical Space Navigation in Drug Design” (Journal of Chemical Information and Modeling, 2025).

Columns and labels:
MAO-A = molecular target: T1, MAO-A (Homo sapiens, UniProt P21397); assay: Monoamine Oxidase-A Inhibitor Screening Kit (Merck, MAK295), fluorometric assay; format: biochemical; conditions: for inhibition at 1 µM: concentration 1 uM; for inhibition at 10 µM: concentration 10 uM; for inhibition at 100 µM: concentration 100 uM; for IC50: secondary screen, 10 concentrations from 100 µM, duplicate
T1 construct: purchased Merck MAK295
T1 sequence (P21397 1-527): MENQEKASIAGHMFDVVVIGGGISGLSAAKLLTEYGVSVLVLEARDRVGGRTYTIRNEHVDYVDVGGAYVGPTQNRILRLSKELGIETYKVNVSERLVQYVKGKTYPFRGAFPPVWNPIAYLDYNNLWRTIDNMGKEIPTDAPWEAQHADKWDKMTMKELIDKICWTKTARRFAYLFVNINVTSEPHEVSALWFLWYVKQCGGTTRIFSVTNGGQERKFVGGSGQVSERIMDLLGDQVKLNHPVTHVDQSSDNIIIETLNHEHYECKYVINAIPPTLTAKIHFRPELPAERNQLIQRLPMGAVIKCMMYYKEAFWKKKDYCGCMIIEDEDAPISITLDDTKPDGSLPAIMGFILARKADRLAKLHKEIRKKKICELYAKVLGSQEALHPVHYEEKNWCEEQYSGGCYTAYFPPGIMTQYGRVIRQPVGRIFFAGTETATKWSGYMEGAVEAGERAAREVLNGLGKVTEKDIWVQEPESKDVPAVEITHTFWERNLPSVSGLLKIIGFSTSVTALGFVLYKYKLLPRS
Protocol: (§1) The experimental details for determining IC50 are presented in Supporting Information B.
(§2) To evaluate the IC50 of inhibitors, two fluorometric assays were used: the Monoamine Oxidase-A Inhibitor Screening Kit and the Monoamine Oxidase-B Inhibitor Screening Kit (Merck), according to the manufacturer’s protocol. The Echo dose-response software was used to prepare the plates. The compounds were tested at 10 concentrations, starting from 100 µM with a dilution factor of 3.16. All compounds were tested in duplicate in a final concentration of 1% of DMSO. Using a Mantis Liquid Dispenser (Formulatrix), 12.5 µL of protein was added to each tested compound (final concentration of 56 nM) and incubated for 60 minutes at 25°C (MAO-A) or 60 minutes at 37°C (MAO-B). Subsequently, the enzymatic reaction was initiated by adding 10 µL of substrate per well, followed by incubation for 60 minutes at 25°C (MAO-A) or 60 minutes at 37°C (MAO-B). The fluorescence intensity was measured using a plate reader (BioTek Synergy H1) with the following settings: excitation at 535 nm and emission at 587 nm. The data were normalized against low control (assay buffer […]
(§3) (1 picture or pasted object on this page, not shown here) […]
(§4) containing substrate) and high control (protein and substrate). The results were presented as a percentage of inhibition. […]

MAO-B = molecular target: T2, MAO-B (Homo sapiens, UniProt P27338); assay: Monoamine Oxidase-B Inhibitor Screening Kit (Merck, MAK296), fluorometric assay; format: biochemical; conditions: for inhibition at 1 µM: concentration 1 uM; for inhibition at 10 µM: concentration 10 uM; for inhibition at 100 µM: concentration 100 uM; for IC50: secondary screen, 10 concentrations from 100 µM, duplicate
T2 construct: purchased Merck MAK296
T2 sequence (P27338 1-520): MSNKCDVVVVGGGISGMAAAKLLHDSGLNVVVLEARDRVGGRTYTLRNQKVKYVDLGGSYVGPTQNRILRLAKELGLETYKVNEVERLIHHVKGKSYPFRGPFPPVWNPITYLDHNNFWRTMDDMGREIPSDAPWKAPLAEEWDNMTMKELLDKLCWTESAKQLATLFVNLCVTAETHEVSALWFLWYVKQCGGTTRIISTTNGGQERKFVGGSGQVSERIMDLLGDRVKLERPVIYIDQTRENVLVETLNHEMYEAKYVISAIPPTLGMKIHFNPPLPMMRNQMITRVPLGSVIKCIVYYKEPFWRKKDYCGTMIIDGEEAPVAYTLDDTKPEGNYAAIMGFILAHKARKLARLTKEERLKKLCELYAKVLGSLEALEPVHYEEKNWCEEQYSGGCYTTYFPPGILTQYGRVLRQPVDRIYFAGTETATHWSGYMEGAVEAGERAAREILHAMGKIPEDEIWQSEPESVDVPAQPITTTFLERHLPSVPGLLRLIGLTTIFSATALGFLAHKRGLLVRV
Protocol: as §1, §2, §3, §4

| SMILES | inhibition at 1 µM (MAO-A) [%] | inhibition at 10 µM (MAO-A) [%] | inhibition at 100 µM (MAO-A) [%] | inhibition at 1 µM (MAO-B) [%] | inhibition at 10 µM (MAO-B) [%] | inhibition at 100 µM (MAO-B) [%] | IC50 (MAO-A) [nM] | IC50 (MAO-B) [nM] |
| --- | --- | --- | --- | --- | --- | --- | --- | --- |
| Cc1csc(N/N=C/c2cc(Cl)ccc2Cl)n1 [MolPort-000-660-156] | 10.8 | 24.3 | 46.7 | 3.45 | 0.34 | 39.5 | – | – |
| Cc1nc(Nc2ncc3c(n2)CC(C)CC3=O)nc2ccccc12 (stereo not shown) [MolPort-000-510-622] | 0 | 0 | 0 | 0 | 21 | 77.5 | – | – |
| CCc1ccc(Nc2ncc3c(n2)CC(C)CC3=O)cc1 (stereo not shown) [MolPort-000-511-281] | 0 | 0 | 0 | 40 | 83.7 | 96.4 | – | 66.1 |
| O=c1oc2cc(OCc3cccc(Cl)c3)ccc2c2c1CCC2 [MolPort-000-651-742] | 4.35 | 0 | 0 | 91.3 | 98.4 | 98 | – | 9.76 |
| O=C(Nc1ccc(Cl)cc1)C1=Cc2ccccc2OC1 [MolPort-000-686-585] | 0 | 0 | 0 | 0 | 51.7 | 91.2 | – | 10300 |
| Cc1c(-c2ccccc2)c(=O)oc2cc(OS(=O)(=O)c3ccc(Br)cc3)ccc12 [MolPort-000-479-802] | 1.21 | 5.32 | 25.6 | 0 | 0 | 27.3 | – | – |
| O=c1c(-c2ccccc2)coc2cc(O)cc(O)c12 [MolPort-003-665-835] | 0 | 0 | 0 | 0 | 39.8 | 87.3 | – | 2830 |

The next lines start with the values.

| inhibition at 1 µM (MAO-A) [%] | inhibition at 10 µM (MAO-A) [%] | inhibition at 100 µM (MAO-A) [%] | inhibition at 1 µM (MAO-B) [%] | inhibition at 10 µM (MAO-B) [%] | inhibition at 100 µM (MAO-B) [%] | IC50 (MAO-A) [nM] | IC50 (MAO-B) [nM] | SMILES |
| --- | --- | --- | --- | --- | --- | --- | --- | --- |
| 0 | 0 | 0 | 0 | 0 | 46.3 | – | – | COc1ccc(C2SCC(=O)N2NC(=O)COc2ccc3c(C)cc(=O)oc3c2)cc1 (stereo not shown) [MolPort-002-546-020] |
| 80.5 | 93.7 | 97.8 | 0 | 0 | 27.7 | 600 | – | CC(=O)Nc1ccc2c(c1)-c1ccccc1C2=O [MolPort-001-824-101] |
| 0 | 0 | 0 | 0 | 0 | 0 | – | – | Cc1cc(=O)oc2cc(OCC(=O)N/N=C/c3ccccc3)ccc12 [MolPort-002-548-000] |
| 4.19 | 0 | 43.5 | 59 | 81 | 97.3 | – | 460 | CC(=O)NCC1CN(c2ccc(N3CCOCC3)c(F)c2)C(=O)O1 (stereo not shown) [MolPort-002-744-025] |
| 0 | 0 | 0 | 0 | 0 | 0 | – | – | COc1ccc(C2=NN(C(C)=O)C(c3ccccc3)C2)c(O)c1 (stereo not shown) [MolPort-000-773-355] |
| 0 | 17.7 | 84.1 | 11.9 | 30.3 | 105 | 31900 | 2320 | Cc1cc(=O)oc2c(C)c(OCc3nnc(S)n3-c3ccc(Br)cc3)ccc12 [MolPort-002-847-536] |
| 0 | 0 | 15.7 | 0 | 0 | 0 | – | – | O=C(Cn1c(=O)oc2ccccc21)Nc1nnc(SCc2ccccc2)s1 [MolPort-001-610-534] |
| – | 16.5 | 84.2 | 5.64 | 37.9 | 81.3 | 23600 | 11900 | Fc1ccc(-c2ccc3c(c2)[nH]c2ccncc23)cn1 [MolPort-044-831-708] |
| 0 | 0 | 0 | 0 | 0 | 0 | – | – | Cc1nnc2c(Cc3ccccc3)nc3ccccc3n12 [Molport-002-872-748] |
| 0 | 0 | 0 | 0 | 0 | 0 | – | – | Cc1ccc(/C=N/Nc2nc3ccccc3nc2Cc2ccccc2)cc1 [Molport-002-863-179] |
| 7.2 | 26.1 | 7.8 | 0 | 32.5 | 84.4 | – | 32400 | Clc1ccc(/C=N/c2ccc3[nH]ncc3c2)c(Cl)c1 [MolPort-002-945-866] |
